Patent US12655113B2, “Biphenyl compounds as SOCE modulators, compositions and uses thereof” (Università degli Studi del Piemonte Orientale “Amedeo …, priority 2020, dated 2026)

How the values were obtained:
[1] = test system: SOCE in myotubes from KI-STIM1I115F mice (STIM1 mutated protein); experiment: Pharmacological modulation of SOCE in myotubes from KI-STIM1 I115F mice; format: cell-based, mouse; conditions: FIG. 4
Description: Wild-type and KI-STIM1^I115F primary myoblast were obtained from the following muscles: gastrocnemius, tibialis anterior, quadriceps femoris, extensor digitorum longus, soleus, biceps brachii and diaphragm. Each muscle was placed in a 60 mm dish in phosphate-buffered saline (PBS), removed from the tendon and separated longitudinally and subsequently chopped into smaller pieces. The small fragments were incubated with Pronase® (Protease, Streptomyces griseus, Calbiochem®, 25 KU) for 1 hour at 37° C. in shaking and neutralized with Dulbecco's Modified Eagle's Medium (DMEM, Sigma-Aldrich, Italy), supplemented with 10% heat-inactivated FCS (Gibco, Italy), L-glutamine 50 mg/mL (Sigma-Aldrich, Italy), penicillin 10 U/mL and streptomycin […] (Sigma-Aldrich, Italy), and 1% chicken embryo extract (Sigma-Aldrich, Italy). Tissues were then chopped into smaller pieces passing through pipets of 10 and 5 mL and the supernatant obtained was filtered in 40 μm strainer and centrifuge at RT for 10 minutes at 1200 rpm. […]
Myotubes were generated from 4 animals in each condition. We also analysed whether SOCE in WT myotubes was modified during the lifespan of these animals. […]

[2] = test system: tBHQ-induced calcium influx into Hek cells (SOCE); experiment: Store-operated calcium entry (SOCE) by Fura-2 Ca2+ measurements in Hek cells; format: cell-based, Human; conditions: for Calcium response to SOCE-modulators (regulation of SOCE): FIG. 2A, HEK cells, stores depleted with 50 μM tBHQ, compound added with 2 mM Ca2+
[3] = test system: SOCE in myotubes from mdx mice; experiment: Pharmacological modulation of SOCE in myotubes of DMD mouse model (mdx); format: cell-based; conditions: FIG. 6; for over-activation of SOCE in DMD mouse model (DMD mutated protein): myotubes from mdx mice
Description: Myotubes were generated from 4 animals in each condition. We analysed whether SOCE is increased in myotubes from mxd mice as compared to myotubes from WT mice. To do this, we employed a classical protocol for Ca^2+-entry, in which stores are depleted with tBHQ in a Ca^2+-free buffer and after 10 minutes cells are perfused in a Ca^2+-containing solution (2 mM).
Myotubes from 4 wild type (WT) and 4 mdx mice were loaded with 5 μM Fura-2 AM and placed in an extracellular solution containing 0 mM Ca^2+. Stores were depleted with 50 μM tBHQ and after 10 minutes cells are perfused in a Ca^2+-containing solution (2 mM) in presence or absence of the selected compound (3-(1-(3-methoxy-[1,1-biphenyl]-4-yl)-1H-1,2,3-triazol-4-yl)benzoic acid).

[4] = test system: T cell cytokine production; conditions: T cells; cited from earlier work
[5] = Cytotoxicity, residual cell viability after 24 hours; format: cell-based; conditions: 10 μM
[6] = test system: metabotropic glutamate, muscarinic acetylcholine and GABA B receptors, GABA A, AMPA and NMDA receptors, tetrodotoxin-sensitive Na+ channels, N- and P/Q-type …; conditions: cited from earlier work
ICRAC = ICRAC (Homo sapiens, UniProt Q96D31); conditions: read-out: IC50 (ICRAC inhibition); cited from earlier work
[7] = target: T1, overexpressed TRPC5 channels (Homo sapiens, UniProt Q9UL62); conditions: cited from earlier work
T1 sequence (Q9UL62 1-973): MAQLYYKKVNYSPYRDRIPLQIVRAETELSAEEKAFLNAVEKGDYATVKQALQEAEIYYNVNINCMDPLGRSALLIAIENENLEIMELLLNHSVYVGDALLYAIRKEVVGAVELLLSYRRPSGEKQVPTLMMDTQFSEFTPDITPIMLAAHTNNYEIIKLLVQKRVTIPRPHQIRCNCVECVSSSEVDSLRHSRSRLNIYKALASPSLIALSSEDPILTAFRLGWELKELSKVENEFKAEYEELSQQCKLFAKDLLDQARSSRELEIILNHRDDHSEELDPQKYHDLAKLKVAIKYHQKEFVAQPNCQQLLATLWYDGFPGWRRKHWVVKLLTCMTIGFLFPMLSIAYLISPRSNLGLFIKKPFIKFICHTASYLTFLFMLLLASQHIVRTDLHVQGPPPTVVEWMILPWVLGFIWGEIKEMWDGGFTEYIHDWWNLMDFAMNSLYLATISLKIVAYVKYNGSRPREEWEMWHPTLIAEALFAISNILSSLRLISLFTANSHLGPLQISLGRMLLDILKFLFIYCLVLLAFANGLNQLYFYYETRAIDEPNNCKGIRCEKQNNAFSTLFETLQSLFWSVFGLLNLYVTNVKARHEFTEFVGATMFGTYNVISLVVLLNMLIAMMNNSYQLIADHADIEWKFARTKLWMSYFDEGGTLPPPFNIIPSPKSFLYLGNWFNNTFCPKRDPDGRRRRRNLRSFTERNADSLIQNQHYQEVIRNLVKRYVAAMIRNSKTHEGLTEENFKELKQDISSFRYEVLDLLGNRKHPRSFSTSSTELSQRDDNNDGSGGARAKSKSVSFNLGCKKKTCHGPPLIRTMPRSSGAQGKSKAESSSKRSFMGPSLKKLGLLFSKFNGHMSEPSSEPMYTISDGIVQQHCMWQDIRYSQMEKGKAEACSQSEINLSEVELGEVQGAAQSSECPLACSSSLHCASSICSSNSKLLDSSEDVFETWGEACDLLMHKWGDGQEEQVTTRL

endogenous TRPC1/5 = endogenous TRPC1/5 (Homo sapiens, UniProt P48995+Q9UL62); conditions: cited from earlier work
STIM1 clustering = conditions: vascular smooth muscle cells; cited from earlier work
[8] = test system: vascular smooth muscle cells; conditions: cited from earlier work

ICRAC, sequence (Q96D31 whole entry): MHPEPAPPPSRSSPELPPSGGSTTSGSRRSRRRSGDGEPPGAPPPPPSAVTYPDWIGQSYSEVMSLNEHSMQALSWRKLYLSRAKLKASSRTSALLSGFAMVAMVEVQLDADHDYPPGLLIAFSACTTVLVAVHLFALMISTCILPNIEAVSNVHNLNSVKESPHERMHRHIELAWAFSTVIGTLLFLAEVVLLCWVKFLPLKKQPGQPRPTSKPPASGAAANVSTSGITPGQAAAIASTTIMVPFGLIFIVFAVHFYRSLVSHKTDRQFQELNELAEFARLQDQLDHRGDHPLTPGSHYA
endogenous TRPC1/5, sequence (P48995 whole entry, one chain of several): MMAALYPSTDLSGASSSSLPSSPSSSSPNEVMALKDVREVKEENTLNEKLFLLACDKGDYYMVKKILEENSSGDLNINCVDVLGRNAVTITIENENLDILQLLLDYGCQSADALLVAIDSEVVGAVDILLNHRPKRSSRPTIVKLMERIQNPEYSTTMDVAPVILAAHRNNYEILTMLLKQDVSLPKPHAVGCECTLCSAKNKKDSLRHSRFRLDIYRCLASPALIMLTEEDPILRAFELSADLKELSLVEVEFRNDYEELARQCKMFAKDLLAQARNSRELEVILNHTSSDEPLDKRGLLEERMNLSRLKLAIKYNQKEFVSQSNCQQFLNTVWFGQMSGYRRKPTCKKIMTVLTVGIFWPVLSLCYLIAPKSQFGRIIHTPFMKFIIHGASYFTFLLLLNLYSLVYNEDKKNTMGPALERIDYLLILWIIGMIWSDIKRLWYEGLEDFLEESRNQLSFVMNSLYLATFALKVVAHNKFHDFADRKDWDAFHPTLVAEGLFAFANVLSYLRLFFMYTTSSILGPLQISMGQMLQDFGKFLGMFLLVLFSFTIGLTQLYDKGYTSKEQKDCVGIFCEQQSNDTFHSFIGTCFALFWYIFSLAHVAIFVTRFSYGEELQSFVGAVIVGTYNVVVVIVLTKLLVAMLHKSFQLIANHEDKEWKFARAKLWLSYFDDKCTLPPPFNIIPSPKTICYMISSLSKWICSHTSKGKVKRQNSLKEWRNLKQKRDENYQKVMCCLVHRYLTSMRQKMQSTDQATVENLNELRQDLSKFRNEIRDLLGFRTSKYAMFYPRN

Compound: COc1cccc(-c2ccc(-n3cc(-c4cccc(C(=O)O)c4)nn3)cc2)c1 [Compound 13, 3-(1-(3′-Methoxy-[1,1′-biphenyl]-4-yl)-1H-1,2,3-triazol-4-yl)benzoic acid]
- over-activation of STIM1 mutated protein [1]: able to revert the over-activation of STIM1 mutated protein
- Calcium response to SOCE-modulators (regulation of SOCE) [2]: negatively regulate SOCE
- inhibition at 3 µM ([2]; Homo sapiens, HEK293, Hek cells, 3 μM): 85 ± 9%
- SOCE in myotubes from mdx mice ([3]; 10 μM): impairs SOCE
- over-activation of SOCE in DMD mouse model (DMD mutated protein) [3]: able to revert the over-activation of DMD mutated protein

Compound: O=C(O)c1cccc(-c2cn(-c3ccc(-c4ccc5c(c4)OCCO5)cc3)nn2)c1 [Compound 18, 3-(1-(4-(2,3-dihydrobenzo[b][1,4]dioxin-6-yl)phenyl)-1H-1,2,3-triazol-4-yl)benzoic acid]
- over-activation of STIM1 mutated protein [1]: able to revert the over-activation of STIM1 mutated proteins
- Calcium response to SOCE-modulators (regulation of SOCE) [2]: negatively regulate SOCE
- inhibition at 10 µM ([2]; Homo sapiens, HEK293, Hek cells, 10 μM): 82.7 ± 4%
- over-activation of SOCE in DMD mouse model (DMD mutated protein) [3]: able to revert the over-activation of SOCE in DMD mouse model

Compound: COc1ccc(OC)c(-c2ccc(NC(=O)c3ccncc3F)cc2)c1 [Synta66, 3-fluoropyridine-4-carboxylic acid (2′,5′-dimethoxybiphenyl-4-yl)amide]
- production of IFN-gamma, IL-2 and IL-17 [4]: inhibits the production
- production of IL-8 [4]: but not of IL-8
- residual cell viability [5]: 76%
- effect on receptors and ion channels (mGlu, muscarinic, GABA B, GABA A, AMPA, NMDA, TTX-sensitive Na+, N- and P/Q-type Ca2+ channels) [6]: does not affect
- IC50 (ICRAC): ~1000 nM
- IC50 in inhibiting SOCE activity [2]: in the nanomolar range
- inhibition of overexpressed TRPC5 channels [7]: does not inhibit
- inhibition of endogenous TRPC1/5 (endogenous TRPC1/5): does not inhibit
- interference with STIM1 clustering (STIM1 clustering): does not interfere with STIM1 clustering
- IC50 [8]: ~30 nM
